Test results reported in patent US20210238170A1, “5,5-Difluoro- and 5-Fluoro-5-Methyl-C-Glycoside Derivatives Useful As Dual SGLT1 / SGLT2 Modulators” (Janssen Pharmaceutica NV, priority 2018, published 2021).
Where two headings read alike, the source gives them in different places.

Tests used:
human SGLT1 = target: T1, human SGLT1 (Homo sapiens, UniProt P13866); test: SGLT1 in vitro assay: Na-dependent 14C-AMG uptake in CHO-K1 cells stably expressing human SGLT1; type: cell-based; settings: for inhibition at 0.3 µM: read-out: SGLT1 % Inh @ 0.3 μM; for IC50: compounds of formula (I) where R0 is fluoro
T1 construct: expressed in transfected cells
T1 sequence (P13866 1-664): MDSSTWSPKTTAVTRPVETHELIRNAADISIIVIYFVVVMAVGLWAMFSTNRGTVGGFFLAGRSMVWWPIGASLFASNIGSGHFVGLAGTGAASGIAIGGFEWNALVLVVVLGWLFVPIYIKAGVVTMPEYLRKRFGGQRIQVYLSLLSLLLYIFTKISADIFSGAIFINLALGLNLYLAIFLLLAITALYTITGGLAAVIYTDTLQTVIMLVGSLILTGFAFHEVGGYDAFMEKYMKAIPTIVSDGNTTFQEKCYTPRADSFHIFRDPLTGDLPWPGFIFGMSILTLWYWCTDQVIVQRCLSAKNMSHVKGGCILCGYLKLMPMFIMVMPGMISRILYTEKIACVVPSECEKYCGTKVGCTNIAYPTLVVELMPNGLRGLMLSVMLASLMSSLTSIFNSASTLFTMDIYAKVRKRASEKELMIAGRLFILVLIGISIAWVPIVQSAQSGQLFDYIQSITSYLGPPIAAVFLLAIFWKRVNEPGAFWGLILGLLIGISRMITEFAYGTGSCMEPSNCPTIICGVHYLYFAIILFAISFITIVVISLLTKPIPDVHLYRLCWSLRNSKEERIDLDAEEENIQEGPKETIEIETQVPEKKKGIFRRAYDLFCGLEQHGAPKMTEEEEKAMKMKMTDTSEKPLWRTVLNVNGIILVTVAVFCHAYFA
Description: (§1) Biological Example 1: SGLT1 and SGLT2 In Vitro Assays
(§2) The ability of the compounds of formula (I) of the present invention to treat an SGLT-mediated condition was determined using the following procedures:
(§3) SGLT1 and SGLT2 were cloned in form of cDNA from human small intestine (Genbank M24847), and from human kidney (Genbank M95549), respectively. Subsequently, each full cDNA was subcloned into pcDNA with each construct's integrity verified through follow-on sequencing. To generate CHO-K1 cells that stably express human SGLT1 or human SGLT2, CHO-K1 cells were transfected using DMRIE-C reagent (Life Technologies, Gaithersburg, Md.). Transfected cells were then selected in the presence of 500 μg/ml of the Geneticin (G418 Cellgro Catalog No. 30234-CI)
(§4) Individual clones were then characterized using the following cell-based assay for sodium-dependent glucose transport:
(§5) Inhibition of SGLT1 and SGLT2 activity was assessed in CHO K1 cells stably expressing either human SGLT1 or SGLT2, using the SGLT specific glucose analog methyl-glucopyranoside (Sigma Catalog No. M-9376). Cells were plated (45,000 cells/well) in white wall 96-well plates (COSTAR, Cat #3903) for 24 hours in growth medium, then a final concentration of 10 mM Na-Butyrate (ALDRICH Cat #30341-0) was added. The cells were incubated for 24 hours. On the day of the assay, cells were rinsed and treated with test compounds (at concentrations of 0.001 μM to 10 μM) in assay buffer (50 mM HEPES, 20 mM Tris base, 5 mM KCl, 1 mM MgCl2, 1 mM CaCl2 and 137 mM NaCl, pH 7.4) for 10 minutes. Cells were then incubated with ^14C-a-methyl-d-glucopyranoside (AMG, Amersham Catalog No. CFB 76), using 0.07 μCi per well in 500 µM AMG final concentration. The cells were incubated for 2 hours at 37° C. with 5% CO2 and washed two times with ice-cold Phosphate Buffer Solution (CELLGRO Catalog No. 21030-CV). The cells were then solubilized by adding 60 μl of MICROSCINT™ 20 and the Na-dependent ^14C-AMG uptake was quantified by measuring radioactivity. Plates were counted in a TopCount (Packard, Meriden, Conn.)
(§6) Representative compounds of the present invention were tested according to the procedures as described in Biological Example 1 and 2 above, with results as listed in Table 5, below. Results are reported as the %-inhibition or IC50 value. Variability for the functional assay was typically within 20%.

human SGLT2 = target: T2, human SGLT2 (Homo sapiens, UniProt P31639); test: SGLT2 in vitro assay: Na-dependent 14C-AMG uptake in CHO-K1 cells stably expressing human SGLT2; type: cell-based; settings: for inhibition at 0.3 µM: read-out: SGLT2 % Inh @ 0.3 μM; for IC50: compounds of formula (I) where R0 is fluoro
T2 construct: expressed in transfected cells
T2 sequence (P31639 1-672): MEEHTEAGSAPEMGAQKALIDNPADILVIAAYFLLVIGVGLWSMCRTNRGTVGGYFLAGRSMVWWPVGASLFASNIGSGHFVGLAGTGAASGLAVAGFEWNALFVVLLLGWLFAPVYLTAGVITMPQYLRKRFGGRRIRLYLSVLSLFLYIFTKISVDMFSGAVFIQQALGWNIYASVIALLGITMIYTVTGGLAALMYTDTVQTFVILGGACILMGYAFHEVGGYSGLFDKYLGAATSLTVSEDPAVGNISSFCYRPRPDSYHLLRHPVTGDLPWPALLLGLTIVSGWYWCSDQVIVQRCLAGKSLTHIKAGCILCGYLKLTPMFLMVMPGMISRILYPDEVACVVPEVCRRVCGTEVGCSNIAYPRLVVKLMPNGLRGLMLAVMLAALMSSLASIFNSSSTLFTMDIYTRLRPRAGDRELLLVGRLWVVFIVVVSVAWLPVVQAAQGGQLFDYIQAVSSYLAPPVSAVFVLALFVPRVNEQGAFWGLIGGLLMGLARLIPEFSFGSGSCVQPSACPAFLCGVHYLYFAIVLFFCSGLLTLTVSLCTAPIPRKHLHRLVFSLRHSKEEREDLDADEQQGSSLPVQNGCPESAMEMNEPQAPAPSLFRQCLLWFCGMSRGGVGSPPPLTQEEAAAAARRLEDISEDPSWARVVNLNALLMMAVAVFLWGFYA
Description: as §1, §2, §3, §4, §5, §6

[1] = @ 0.3 μM, CHO-K1 cells stably expressing human SGLT1, 14C-AMG uptake
[2] = @ 0.3 μM, CHO-K1 cells stably expressing human SGLT2, 14C-AMG uptake
[3] = CHO-K1 cells stably expressing human SGLT1, 14C-AMG uptake
[4] = CHO-K1 cells stably expressing human SGLT2, 14C-AMG uptake

COc1cc(O)c([C@@H]2O[C@H](CO)[C@@](C)(F)[C@H](O)[C@H]2O)cc1Cc1ccc2c(c1)CCCO2 [Compound 2, (2S,3R,4R,5S,6R)-2-[5-(chroman-6-ylmethyl)-2-hydroxy-4-methoxy-phenyl]-5-fluoro-6-(hydroxymethyl)-5-methyl-tetrahydropyran-3,4-diol]
inhibition at 0.3 µM (human SGLT1; 0.3 μM, CHO-K1 cells expressing human SGLT1): 31.1% | inhibition at 0.3 µM (human SGLT2; 0.3 μM, CHO-K1 cells expressing human SGLT2): 67.4%

CN(C)c1ccc(Cc2cc([C@@H]3O[C@H](CO)C(F)(F)[C@H](O)[C@H]3O)cc3c2OCC3)cc1 [Compound 179]
SGLT1 % Inh @ 0.3 μM (human SGLT1; [1]): 24.9% | SGLT2 % Inh @ 0.3 μM (human SGLT2; [2]): 62.1%

CCc1ccc(Cc2cc([C@@H]3O[C@H](CO)C(F)(F)[C@H](O)[C@H]3O)c(OC)cc2OC)cc1 [Compound 153]
inhibition at 0.3 µM (human SGLT1; [1]): 48.7% | IC50 (human SGLT1; [3]): 0.591 µM | inhibition at 0.3 µM (human SGLT2; [2]): 88.1% | IC50 (human SGLT2; [4]): 0.0067 µM

Cc1cc(OCC#N)c([C@@H]2O[C@H](CO)C(F)(F)[C@H](O)[C@H]2O)cc1Cc1cc2ccccc2s1 [Compound 40, 2-[4-(benzothiophen-2-ylmethyl)-2-[(2S,3R,4R,6R)-5,5-difluoro-3,4-dihydroxy-6-(hydroxymethyl)tetrahydropyran-2-yl]-5-methyl-phenoxy]acetonitrile]
inhibition at 0.3 µM (human SGLT1; [1]): 54% | IC50 (human SGLT1; [3]): 0.176 µM | inhibition at 0.3 µM (human SGLT2; [2]): 85.4% | IC50 (human SGLT2; [4]): 0.0035 µM

COc1ccc(Cc2cc([C@@H]3O[C@H](CO)C(F)(F)[C@H](O)[C@H]3O)c(OC)cc2Cl)cc1 [Compound 87]
SGLT1 % Inh @ 0.3 μM (human SGLT1; [1]): 8.4% | SGLT2 % Inh @ 0.3 μM (human SGLT2; [2]): 76.0%

COc1cc(OC)c([C@@H]2O[C@H](CO)C(F)(F)[C@H](O)[C@H]2O)cc1Cc1ccc2c(c1)OCCO2 [Compound 55, (2S,3R,4R,6R)-2-[5-(2,3-dihydro-1,4-benzodioxin-6-ylmethyl)-2,4-dimethoxy-phenyl]-5,5-difluoro-6-(hydroxymethyl)tetrahydropyran-3,4-diol]
inhibition at 0.3 µM (human SGLT1; [1]): 15.8% | inhibition at 0.3 µM (human SGLT2; [2]): 84.2%

Cc1cc(O)c([C@@H]2O[C@H](CO)C(F)(F)[C@H](O)[C@H]2O)cc1Cc1cc2c(s1)CCN(C#N)C2 [Compound 82]
SGLT1 % Inh @ 0.3 μM (human SGLT1; [1]): 50.3% | IC50 (human SGLT1; [3]): 0.505 µM | SGLT2 % Inh @ 0.3 μM (human SGLT2; [2]): 85.4% | IC50 (human SGLT2; [4]): 0.0055 µM

N#Cc1cc(O)c([C@@H]2O[C@H](CO)C(F)(F)[C@H](O)[C@H]2O)cc1Cc1ccc(C2CC2)cc1 [Compound 173]
SGLT1 % Inh @ 0.3 μM (human SGLT1; [1]): 17.3% | SGLT2 % Inh @ 0.3 μM (human SGLT2; [2]): 83.3%

OC[C@H]1O[C@@H](c2cc(Cc3ccc([C@@H]4CCOC4)cc3)c(Cl)cc2O)[C@H](O)[C@@H](O)C1(F)F [Compound 46]
SGLT1 % Inh @ 0.3 μM (human SGLT1; [1]): 18.4% | SGLT2 % Inh @ 0.3 μM (human SGLT2; [2]): 89.0%

COc1cc(Cl)c(Cc2ccc(C)s2)cc1[C@@H]1O[C@H](CO)C(F)(F)[C@H](O)[C@H]1O [Compound 165]
inhibition at 0.3 µM (human SGLT1; [1]): 54.7% | IC50 (human SGLT1; [3]): 0.04 µM | inhibition at 0.3 µM (human SGLT2; [2]): 73.2% | IC50 (human SGLT2; [4]): 0.0007 µM

COc1cc(O)c([C@@H]2O[C@H](CO)C(F)(F)[C@H](O)[C@H]2O)cc1Cc1ccc(OCF)cc1 [Compound 142]
inhibition at 0.3 µM (human SGLT1; [1]): 62.6% | IC50 (human SGLT1; [3]): 0.234 µM | inhibition at 0.3 µM (human SGLT2; [2]): 69.4% | IC50 (human SGLT2; [4]): 0.003 µM

COC(=O)N1CCc2sc(Cc3cc([C@@H]4O[C@H](CO)C(F)(F)[C@H](O)[C@H]4O)c(OC)cc3OC)cc2C1 [Compound 75]
SGLT1 % Inh @ 0.3 μM (human SGLT1; [1]): 15.5% | SGLT2 % Inh @ 0.3 μM (human SGLT2; [2]): 52.3%

COc1cc(Cl)c(Cc2ccc(Cl)s2)cc1[C@@H]1O[C@H](CO)C(F)(F)[C@H](O)[C@H]1O [Compound 172]
SGLT1 % Inh @ 0.3 μM (human SGLT1; [1]): 40.4% | SGLT2 % Inh @ 0.3 μM (human SGLT2; [2]): 79.9%

COc1cc(Cl)c(Cc2ccc3c(c2)OCCO3)cc1[C@@H]1O[C@H](CO)C(F)(F)[C@H](O)[C@H]1O [Compound 48, (2S,3R,4R,6R)-2-[4-chloro-5-(2,3-dihydro-1,4-benzodioxin-6-ylmethyl)-2-methoxy-phenyl]-5,5-difluoro-6-(hydroxymethyl)tetrahydropyran-3,4-diol]
inhibition at 0.3 µM (human SGLT1; [1]): 36.5% | inhibition at 0.3 µM (human SGLT2; [2]): 78.1%

CCc1ccc(Cc2cc([C@@H]3O[C@H](CO)C(F)(F)[C@H](O)[C@H]3O)c(OC)cc2C#N)cc1 [Compound 166]
SGLT1 % Inh @ 0.3 μM (human SGLT1; [1]): 8.5% | SGLT2 % Inh @ 0.3 μM (human SGLT2; [2]): 74.9%

OC[C@H]1O[C@@H](c2cc(Cc3ccc(Cl)s3)c(Cl)cc2O)[C@H](O)[C@@H](O)C1(F)F [Compound 167]
inhibition at 0.3 µM (human SGLT1; [1]): 75.7% | IC50 (human SGLT1; [3]): 0.02 µM | inhibition at 0.3 µM (human SGLT2; [2]): 83.4% | IC50 (human SGLT2; [4]): 0.0008 µM

COc1cc(Cl)c(Cc2ccc3c(c2)OCC3)cc1[C@@H]1O[C@H](CO)C(F)(F)[C@H](O)[C@H]1O [Compound 115]
inhibition at 0.3 µM (human SGLT1; [1]): 50.8% | IC50 (human SGLT1; [3]): 0.326 µM | inhibition at 0.3 µM (human SGLT2; [2]): 86.8% | IC50 (human SGLT2; [4]): 0.0005 µM

CCc1cc(OC)c([C@@H]2O[C@H](CO)C(F)(F)[C@H](O)[C@H]2O)cc1Cc1ccc(C2CC2)cc1 [Compound 151]
inhibition at 0.3 µM (human SGLT1; [1]): 52.1% | IC50 (human SGLT1; [3]): 0.644 µM | inhibition at 0.3 µM (human SGLT2; [2]): 88% | IC50 (human SGLT2; [4]): 0.0062 µM

Cc1ccc([C@@H]2O[C@H](CO)C(F)(F)[C@H](O)[C@H]2O)cc1Cc1cc2c(s1)CCN(C(=O)C1CCCC1)C2 [Compound 84]
SGLT1 % Inh @ 0.3 μM (human SGLT1; [1]): 28.5% | SGLT2 % Inh @ 0.3 μM (human SGLT2; [2]): 54.4%
